Assay results: patent US20110082130A1 (LIGAND PHARMACEUTICALS, INC., priority 2006, published 2011)

Target: T1, chimeric human H3 receptor (Homo sapiens, UniProt Q9Y5N1)
T1 construct: made in house; host or cells: Sf9 insect cells (baculovirus); P2 membrane preparation
Experiment: Chimeric human H3 receptor GTP binding assay (agonist-stimulated GTP-gamma35S binding, Example 7)
Assay type: biochemical
Settings: Table II "Ki", symbol *; assay of Example 7
How it was run: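 Sf9 membranes co-expressing chimeric human H3 receptor and heterotrimeric G-protein, 35 μg/tube, in pH 7.4 Tris buffer with 10 μM GDP. Test compounds (10^−10–10^−6 M) competed against 1 μM histamine, […] GTP-gamma35S, 60 min at room temperature. Filter-bound radioactivity counted; IC50 converted to Ki by Cheng-Prusoff. Agonism/inverse agonism tested without histamine (EC50).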

T1 sequence (Q9Y5N1 with tags, fused parts or gaps): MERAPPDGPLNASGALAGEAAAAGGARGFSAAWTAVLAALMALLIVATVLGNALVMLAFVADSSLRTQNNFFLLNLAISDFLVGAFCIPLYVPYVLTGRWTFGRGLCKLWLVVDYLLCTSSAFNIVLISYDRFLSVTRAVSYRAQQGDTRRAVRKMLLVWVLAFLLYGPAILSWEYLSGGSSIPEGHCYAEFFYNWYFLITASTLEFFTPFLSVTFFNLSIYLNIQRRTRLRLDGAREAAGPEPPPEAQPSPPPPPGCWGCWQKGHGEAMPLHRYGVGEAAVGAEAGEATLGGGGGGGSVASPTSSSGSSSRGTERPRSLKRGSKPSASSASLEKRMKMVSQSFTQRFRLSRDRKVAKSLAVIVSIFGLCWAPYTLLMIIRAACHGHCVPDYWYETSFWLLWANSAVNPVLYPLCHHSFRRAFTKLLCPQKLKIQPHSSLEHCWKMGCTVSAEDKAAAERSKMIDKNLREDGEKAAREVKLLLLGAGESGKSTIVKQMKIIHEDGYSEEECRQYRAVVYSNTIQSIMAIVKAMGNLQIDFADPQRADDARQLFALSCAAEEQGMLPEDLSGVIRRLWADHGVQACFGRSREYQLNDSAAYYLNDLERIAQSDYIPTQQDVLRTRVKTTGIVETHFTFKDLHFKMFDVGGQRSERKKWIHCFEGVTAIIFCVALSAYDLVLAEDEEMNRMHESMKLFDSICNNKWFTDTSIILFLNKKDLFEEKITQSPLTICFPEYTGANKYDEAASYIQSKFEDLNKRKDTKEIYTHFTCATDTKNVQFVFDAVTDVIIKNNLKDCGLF

| Ki | Compound |
| --- | --- |
| < 1 µM | COc1ccc(-c2ccc3c(c2)CCN(CC(=O)N2CCN(C4CCC4)CC2)C3)cc1F [Compound 502, 2-[2-(4-cyclobutylpiperazin-1-yl)-2-oxoethyl]-6-(3-fluoro-4-methoxyphenyl)-1,2,3,4-tetrahydroisoquinoline] |
| < 1 µM | COc1ccc(-c2ccc3c(c2)CCN(CC(=O)N2CCN(C4CCCC4)CC2)C3)cc1F [Compound 503, 2-[2-(4-cyclopentylpiperazin-1-yl)-2-oxoethyl]-6-(3-fluoro-4-methoxyphenyl)-1,2,3,4-tetrahydroisoquinoline] |
| < 1 µM | COc1cc(F)c(-c2ccc3c(c2)CCN(CC(=O)N2CCN(C4CCC4)CC2)C3)cc1F [Compound 506, 2-[2-(4-cyclobutylpiperazin-1-yl)-2-oxoethyl]-6-(2,5-difluoro-4-methoxyphenyl)-1,2,3,4-tetrahydroisoquinoline] |
| < 1 µM | COc1cc(F)c(-c2ccc3c(c2)CCN(CC(=O)N2CCN(C4CCCC4)CC2)C3)cc1F [Compound 507, 2-[2-(4-cyclopentylpiperazin-1-yl)-2-oxoethyl]-6-(2,5-difluoro-4-methoxyphenyl)-1,2,3,4-tetrahydroisoquinoline] |
| < 1 µM | COc1ccc2cc(-c3ccc4c(c3)CCN(CC(=O)N3CCN(C5CCC5)CC3)C4)ccc2c1 [Compound 509, 2-[2-(4-cyclobutylpiperazin-1-yl)-2-oxoethyl]-6-(6-methoxy-2-naphthyl)-1,2,3,4-tetrahydroisoquinoline] |
| < 1 µM | CC(C)Oc1cccc(-c2ccc3c(c2)CCN(CC(=O)N2CCN(C4CCC4)CC2)C3)c1 [Compound 513, 2-[2-(4-cyclobutylpiperazin-1-yl)-2-oxoethyl]-6-(3-isopropoxyphenyl)-1,2,3,4-tetrahydroisoquinoline] |
| < 1 µM | COc1cc(-c2ccc3c(c2)CCN(CC(=O)N2CCN(C4CCC4)CC2)C3)cc(OC)c1OC [Compound 516, 2-[2-(4-cyclobutylpiperazin-1-yl)-2-oxoethyl]-6-(3,4,5-trimethoxyphenyl)-1,2,3,4-tetrahydroisoquinoline] |
| < 1 µM | COc1cc(-c2ccc3c(c2)CCN(CC(=O)N2CCN(C4CCCC4)CC2)C3)cc(OC)c1OC [Compound 517, 2-[2-(4-cyclopentylpiperazin-1-yl)-2-oxoethyl]-6-(3,4,5-trimethoxyphenyl)-1,2,3,4-tetrahydroisoquinoline] |
| < 1 µM | COc1ccc(-c2ccc3c(c2)CCN(CC(=O)N2CCN(C4CCC4)CC2)C3)cc1 [Compound 520, 2-[2-(4-cyclobutylpiperazin-1-yl)-2-oxoethyl]-6-(4-methoxyphenyl)-1,2,3,4-tetrahydroisoquinoline] |
| < 1 µM | COc1ccc(-c2ccc3c(c2)CCN(CC(=O)N2CCN(C4CCCC4)CC2)C3)cc1 [Compound 521, 2-[2-(4-cyclopentylpiperazin-1-yl)-2-oxoethyl]-6-(4-methoxyphenyl)-1,2,3,4-tetrahydroisoquinoline] |
| < 1 µM | COc1ccc(-c2ccc3c(c2)CCN(CC(=O)N2CCN(C4CCC4)CC2)C3)cc1OC [Compound 524, 2-[2-(4-cyclobutylpiperazin-1-yl)-2-oxoethyl]-6-(3,4-dimethoxyphenyl)-1,2,3,4-tetrahydroisoquinoline] |
| < 1 µM | COc1ccc(-c2ccc3c(c2)CCN(CC(=O)N2CCN(C4CCCC4)CC2)C3)cc1OC [Compound 525, 2-[2-(4-cyclopentylpiperazin-1-yl)-2-oxoethyl]-6-(3.4-dimethoxyphenyl)-1,2,3,4-tetrahydroisoquinoline] |
| < 1 µM | COc1ccc(-c2ccc3c(c2)CCN(CC(=O)N2CCN(C4CCCCC4)CC2)C3)cc1OC [Compound 526, 2-[2-(4-cyclohexylpiperazin-1-yl)-2-oxoethyl]-6-(3,4-dimethoxyphenyl)-1,2,3,4-tetrahydroisoquinoline] |
| < 1 µM | COc1ccc(-c2ccc3c(c2)CCN(CC(=O)N2CCN(C(C)C)CC2)C3)cc1OC [Compound 527, 6-(3,4-dimethoxyphenyl)-2-[2-(4-isopropylpiperazin-1-yl)-2-oxoethyl]-1,2,3,4-tetrahydroisoquinoline] |
| < 1 µM | CCOc1ccc(-c2ccc3c(c2)CCN(CC(=O)N2CCN(C4CCC4)CC2)C3)cc1 [Compound 528, 2-[2-(4-cyclobutylpiperazin-1-yl)-2-oxoethyl]-6-(4-ethoxyphenyl)-1,2,3,4-tetrahydroisoquinoline] |
| < 1 µM | CCOc1ccc(-c2ccc3c(c2)CCN(CC(=O)N2CCN(C4CCCC4)CC2)C3)cc1 [Compound 529, 2-[2-(4-cyclopentylpiperazin-1-yl)-2-oxoethyl]-6-(4-ethoxyphenyl)-1,2,3,4-tetrahydroisoquinoline] |
| < 1 µM | CN(C)c1ccc(-c2ccc3c(c2)CCN(CC(=O)N2CCN(C4CCC4)CC2)C3)cc1 [Compound 532, 4-{2-[2-(4-cyclobutylpiperazin-1-yl)-2-oxoethyl]-1,2,3,4-tetrahydroisoquinolin-6-yl}-N,N-dimethylaniline] |
| < 1 µM | CN(C)c1ccc(-c2ccc3c(c2)CCN(CC(=O)N2CCN(C4CCCC4)CC2)C3)cc1 [Compound 533, 4-{2-[2-(4-cyclopentylpiperazin-1-yl)-2-oxoethyl]-1,2,3,4-tetrahydroisoquinolin-6-yl}-N,N-dimethylaniline] |
| < 1 µM | CN(C)c1cccc(-c2ccc3c(c2)CCN(CC(=O)N2CCN(C4CCC4)CC2)C3)c1 [Compound 536, 3-{2-[2-(4-cyclobutylpiperazin-1-yl)-2-oxoethyl]-1,2,3,4-tetrahydroisoquinolin-6-yl}-N,N-dimethylaniline] |
| < 1 µM | COc1ccc(-c2ccc3c(c2)CCN(CC(=O)N2CCN(C4CCC4)CC2)C3)cc1C [Compound 540, 2-[2-(4-cyclobutylpiperazin-1-yl)-2-oxoethyl]-6-(4-methoxy-3-methylphenyl)-1,2,3,4-tetrahydroisoquinoline] |
| < 1 µM | COc1ccc(-c2ccc3c(c2)CCN(CC(=O)N2CCN(C4CCCC4)CC2)C3)cc1C [Compound 541, 2-[2-(4-cyclopentylpiperazin-1-yl)-2-oxoethyl]-6-(4-methoxy-3-methylphenyl)-1,2,3,4-tetrahydroisoquinoline] |
| < 1 µM | CCCOc1ccc(-c2ccc3c(c2)CCN(CC(=O)N2CCN(C4CCC4)CC2)C3)cc1 [Compound 544, 2-[2-(4-cyclobutylpiperazin-1-yl)-2-oxoethyl]-6-(4-propoxyphenyl)-1,2,3,4-tetrahydroisoquinoline] |
| < 1 µM | CCCOc1ccc(-c2ccc3c(c2)CCN(CC(=O)N2CCN(C4CCCC4)CC2)C3)cc1 [Compound 545, 2-[2-(4-cyclopentylpiperazin-1-yl)-2-oxoethyl]-6-(4-propoxyphenyl)-1,2,3,4-tetrahydroisoquinoline] |
| < 1 µM | C[C@H]1CN(C(=O)CN2CCc3cc(-c4cncnc4)ccc3C2)CCN1C1CCCC1 [Compound 610, 2-{2-[(3S)-4-cyclopentyl-3-methylpiperazin-1-yl]-2-oxoethyl}-6-pyrimidin-5-yl-1,2,3,4-tetrahydroisoquinoline] |
| < 1 µM | C[C@@H]1CN(C(=O)CN2CCc3cc(-c4cncnc4)ccc3C2)CCN1C1CCCC1 [Compound 611, 2-{2-[(3R)-4-cyclopentyl-3-methylpiperazin-1-yl]-2-oxoethyl}-6-pyrimidin-5-yl-1,2,3,4-tetrahydroisoquinoline] |
